Where two headings read alike, the source gives them in different places.
Assays:
[1] = test system: BM-3(wt); conditions: 2% (v/v) DMSO, 200 μM substrate, 500 nM enzyme; cited from earlier work
[2] = test system: BM-3(A328V); conditions: 2% (v/v) DMSO, 200 μM substrate, 500 nM enzyme; cited from earlier work
[3] = molecular target: BMP(A328V), heme domain of P450BM-3 A328V mutant (Priestia megaterium, UniProt P14779, A329V); assay: Substrate dissociation constants by UV-vis spectral titration, A328V heme domain; assay type: binding, Bacillus megaterium; conditions: for Fold Enhancement of substrate affinity, A328V versus wild type: ratio of BMP(wt) KD to BMP(A328V) KD
[4] = molecular target: BM-3(wt), wild-type P450BM-3 (Priestia megaterium, UniProt P14779); assay: Steady-state turnover, products quantified by GC-MS, wild-type holoenzyme; assay type: biochemical, Bacillus megaterium; conditions: 50 nM enzyme, 250 μM substrate, 50 mM KPi pH 7.4, 25°C
[5] = molecular target: BM-3(A328V), P450BM-3(A328V) (Priestia megaterium, UniProt P14779, A329V); assay: Steady-state turnover, products quantified by GC-MS, A328V holoenzyme; assay type: biochemical, Bacillus megaterium; conditions: 50 nM enzyme, 250 μM substrate; for BM-3(A328V) turnover rate: 50 mM KPi pH 7.4, 25°C, GC-MS
[6] = molecular target: BMP(wt), heme domain of P450BM-3 (Priestia megaterium, UniProt P14779); assay type: binding, Bacillus megaterium
[7] = molecular target: P450BM-3 wild-type (Priestia megaterium, UniProt P14779); assay: Regiospecificity of hydroxylation, product distribution by GC/MS, wild type; assay type: biochemical, Bacillus megaterium; conditions: wild-type enzyme, 500 μM substrate, 50 nM enzyme, 250 μM NADPH, run to completion
[8] = molecular target: P450BM-3(A328V) (Priestia megaterium, UniProt P14779, A329V); assay: Regiospecificity of hydroxylation, product distribution by GC/MS, A328V; assay type: biochemical, Bacillus megaterium; conditions: A328V mutant, 500 μM substrate, 50 nM enzyme, 250 μM NADPH, run to completion
[9] = read-out: BMP(A328V) Dissociation Constant, 50 mM KPi pH 7.4, room temperature, 1 μM P450, UV-vis titration

Chain of BMP(A328V), heme domain of P450BM-3 A328V mutant (P14779 2-472 A329V): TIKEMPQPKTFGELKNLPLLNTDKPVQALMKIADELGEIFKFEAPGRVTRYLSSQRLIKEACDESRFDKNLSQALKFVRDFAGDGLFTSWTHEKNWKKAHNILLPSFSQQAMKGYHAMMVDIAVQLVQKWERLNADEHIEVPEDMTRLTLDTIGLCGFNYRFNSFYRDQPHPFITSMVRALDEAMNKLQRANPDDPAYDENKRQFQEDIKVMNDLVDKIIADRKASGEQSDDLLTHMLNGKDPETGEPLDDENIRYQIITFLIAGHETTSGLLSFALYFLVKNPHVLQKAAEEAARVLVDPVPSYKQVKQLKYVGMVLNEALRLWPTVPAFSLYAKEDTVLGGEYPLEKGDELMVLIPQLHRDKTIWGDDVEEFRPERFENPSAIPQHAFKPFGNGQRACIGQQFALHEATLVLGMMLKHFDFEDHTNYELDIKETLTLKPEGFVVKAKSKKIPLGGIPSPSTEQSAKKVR
Chain of BM-3(A328V), P450BM-3(A328V) (P14779 whole entry A329V, the tested form may be a part): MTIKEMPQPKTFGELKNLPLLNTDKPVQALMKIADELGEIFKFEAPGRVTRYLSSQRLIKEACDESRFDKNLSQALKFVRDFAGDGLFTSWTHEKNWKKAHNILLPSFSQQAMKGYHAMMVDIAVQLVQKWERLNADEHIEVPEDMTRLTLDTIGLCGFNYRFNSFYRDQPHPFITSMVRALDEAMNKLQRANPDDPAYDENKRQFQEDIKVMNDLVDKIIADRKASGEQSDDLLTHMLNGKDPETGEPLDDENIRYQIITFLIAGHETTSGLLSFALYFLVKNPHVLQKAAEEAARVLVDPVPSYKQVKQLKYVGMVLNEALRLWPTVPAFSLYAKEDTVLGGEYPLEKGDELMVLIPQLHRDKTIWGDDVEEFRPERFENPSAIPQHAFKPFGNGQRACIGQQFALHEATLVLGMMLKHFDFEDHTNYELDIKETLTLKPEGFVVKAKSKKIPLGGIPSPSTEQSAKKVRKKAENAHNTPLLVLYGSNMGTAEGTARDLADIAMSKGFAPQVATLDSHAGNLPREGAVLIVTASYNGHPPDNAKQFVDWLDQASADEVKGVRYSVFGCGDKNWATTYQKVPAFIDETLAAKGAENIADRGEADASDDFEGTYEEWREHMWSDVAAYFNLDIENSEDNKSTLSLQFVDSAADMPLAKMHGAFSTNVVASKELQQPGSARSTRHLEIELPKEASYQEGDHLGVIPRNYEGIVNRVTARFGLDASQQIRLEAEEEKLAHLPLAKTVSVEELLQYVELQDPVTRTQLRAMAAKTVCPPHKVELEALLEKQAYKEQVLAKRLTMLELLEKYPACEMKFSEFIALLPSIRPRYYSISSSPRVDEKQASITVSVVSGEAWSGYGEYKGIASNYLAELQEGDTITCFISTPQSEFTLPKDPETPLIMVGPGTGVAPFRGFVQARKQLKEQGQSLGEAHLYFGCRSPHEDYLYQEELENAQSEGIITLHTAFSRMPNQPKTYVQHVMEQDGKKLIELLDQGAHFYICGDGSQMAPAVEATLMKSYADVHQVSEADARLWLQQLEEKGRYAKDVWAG
Chain of BM-3(wt), wild-type P450BM-3 (P14779 whole entry): as the sequence (P14779 whole entry A329V, the tested form may be a part) above, with V329A counted along it
Chain of BMP(wt), heme domain of P450BM-3 (P14779 2-472): as the sequence (P14779 2-472 A329V) above, with V328A counted along it
Chain of P450BM-3(A328V) (P14779 whole entry A329V): as the sequence (P14779 whole entry A329V, the tested form may be a part) above
Chain of P450BM-3 wild-type (P14779 whole entry): as the sequence (P14779 whole entry A329V, the tested form may be a part) above, with V329A counted along it

SMILES	BM-3(wt) turnover rate [1]	BM-3(A328V) turnover rate [2]	Fold Enhancement of substrate affinity, A328V versus wild type [3]	Kd [3, 9]	BM-3(wt) turnover rate [4]	Fold Enhancement of turnover (rate A328V divided by rate wild type) [5]	BM-3(A328V) turnover rate [5]	Kd [6]	Kd [3]	ω-2 hydroxy product, percent of total oxidation products [7]	ω-1 hydroxy product, percent of total oxidation products [8]
CC(=O)CC/C=C(/C)CCC=C(C)C [Nerylacetone]	155 ± 7 μmol/min/μmol	338 ± 10 μmol/min/μmol									
CCCCCCCCCCCCCCCC(=O)N[C@@H](CCC(N)=O)C(=O)O [PalmGln, N-palmitoyl-L-glutamine]			2.7	74 ± 5 nM	610 ± 25 μmol/min/μmol	7.4	4500 ± 500 μmol/min/μmol				
CCCCCCCCCCCCCCCC(=O)N[C@@H](CCC(=O)O)C(=O)O [PalmGlu, N-palmitoyl-L-glutamate]			9.0	410 ± 60 nM	485 ± 15 μmol/min/μmol	8.2	3960 ± 280 μmol/min/μmol				
CCCCCCCCCCCCCCCC(=O)NCC(=O)O [PalmGly, N-palmitoylglycine]			7.1	45 ± 14 nM	1875 ± 30 μmol/min/μmol	2.9	5500 ± 600 μmol/min/μmol				
CCCCCCCCCCCCCCCC(=O)N[C@@H](CC(C)C)C(=O)O [PalmLeu]				< 30 nM	1155 ± 20 μmol/min/μmol	3.4	3900 ± 320 μmol/min/μmol				
CCCCCCCCCCCCCCCC(=O)N[C@@H](CCSC)C(=O)O [PalmMet, N-palmitoyl-L-methionine]				< 30 nM	1690 ± 75 μmol/min/μmol	2.6	4400 ± 145 μmol/min/μmol				
CCCCCCCCCCCCCCCC(=O)O [Palmitate, palmitic acid]			8.1		1480 ± 35 μmol/min/μmol	2.3	3355 ± 95 μmol/min/μmol	1300 ± 170 nM	160 ± 20 nM	46%	72%

From paper PMC3235725 (Biochemistry, 2011)
